Biological target: T1, MavL(42-435) (Legionella pneumophila, UniProt Q5ZSJ1)
T1 construct: gene lpg2526
Conditions: 15 mM Tris-HCl pH 8.0, 50 mM NaCl, 20 °C; 300 µM ligand into 30 µM protein

T1 sequence (Q5ZSJ1 42-435 limits assumed): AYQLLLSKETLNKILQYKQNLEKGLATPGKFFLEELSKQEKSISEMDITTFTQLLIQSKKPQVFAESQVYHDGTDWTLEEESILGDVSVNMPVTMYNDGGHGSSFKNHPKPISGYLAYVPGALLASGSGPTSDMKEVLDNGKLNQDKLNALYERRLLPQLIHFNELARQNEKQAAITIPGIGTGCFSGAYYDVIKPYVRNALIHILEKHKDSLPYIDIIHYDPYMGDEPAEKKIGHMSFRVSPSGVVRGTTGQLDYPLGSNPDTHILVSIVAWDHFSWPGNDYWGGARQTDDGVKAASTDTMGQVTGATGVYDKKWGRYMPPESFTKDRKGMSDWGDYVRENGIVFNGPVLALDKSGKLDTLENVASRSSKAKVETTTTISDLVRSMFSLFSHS

## Nc1ncnc2c1ncn2[C@@H]1O[C@H](COP(=O)(O)OP(=O)(O)OC[C@H]2OC(O)[C@H](O)[C@@H]2O)[C@@H](O)[C@H]1O (stereo partly shown) [ADP-ribose]
  Kd: 13 µM

From PMC8699189 (Biomolecules, 2021)
